Earlier results as cited in US8202842B2, “Inhibition of cholera toxins by galatooligosaccharides (GOS)” (priority 2006, dated 2012).

Tests used:
cholera toxin = cholera toxin (Vibrio cholerae serotype O1, UniProt P01556); conditions: rabbit, in vivo
[1] = tested on: uropathogenic Escherichia coli; conditions: soluble, monovalent

Chain of cholera toxin (P01556 whole entry, looked up): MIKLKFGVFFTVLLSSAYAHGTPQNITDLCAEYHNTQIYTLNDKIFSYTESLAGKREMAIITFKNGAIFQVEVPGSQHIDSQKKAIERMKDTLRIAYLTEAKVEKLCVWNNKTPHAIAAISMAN

| Molecule | Inhibition of fluid accumulation induced by cholera toxin (cholera toxin) | Interference with attachment and colonization of uropathogenic Escherichia coli [1] |
| --- | --- | --- |
| 3-sialyllactose | inhibitor of fluid accumulation | – |
| OC[C@H]1O[C@H](O[C@@H]2[C@H](O)[C@@H](O)[C@H](O[C@H]3[C@H](O)[C@@H](O)C(O)O[C@@H]3CO)O[C@@H]2CO)[C@H](O)[C@@H](O)[C@H]1O (some centres unmarked) [globotriose] | – | interfere with attachment and colonization |
